Like-named read-outs stand apart in the source and are kept apart here.
Experiments:
HL-60 cancer cell line = test: Antiproliferative activity, HL-60; format: cell-based, human
HeLa cancer cell line = test: Cell proliferation resazurin assay, HeLa; format: cell-based, human; settings: 24 h incubation
Protocol: (§1) The proliferation of HeLa, BxPC-3, RD, and MDCK cells was assessed using resazurin. Triplicate cultures of 1 × 10^4 cells in 100 μL of medium were incubated at 37 °C, 3% CO2, in 96-well plates. Compounds were dissolved in DMSO to form 1 × 10⁻^2 M solutions, then diluted with media and added to wells for a 24 h incubation. Following this, 20 μL of resazurin solution was added and incubated for 4 h. Absorbance was measured at 570 nm and 600 nm.
(§2) Percentage inhibition was calculated as follows:(2) I (%)=100−Abs570 nmsample−Abs600 nmsample /[…]−Abs600 nmcontrol ×100
(§3) The formula accounts for absorbance differences at 570 nm and 600 nm to determine cell viability.
(§4) The half maximal inhibitory concentration (IC50) indicated the effectiveness of the compounds on cell lines, as defined by FDA guidelines as the concentration needed for 50% inhibition in vitro. Toxicity was assessed via the median lethal concentration (LC50), the concentration causing death in 50% of juvenile daphnids, calculated using a dose–response equation via least squares fitting. All data are presented as mean ± standard deviation (SD). Statistical analyses were conducted with specialized software.

BxPC-3 cancer cell line = test: Cell proliferation resazurin assay, BxPC-3; format: cell-based, human; settings: BxPC-3, 24 h incubation
Protocol: as §1, §2, §3, §4

Daphnia magna = test: in vivo; settings: pH 7
Protocol: Toxicity testing for certain substances was conducted using Daphnia magna, following ISO 6341:2012 guidelines. Daphnia magna were cultured parthenogenetically at the Institute of Zoology and fed Chlorella vulgaris grown aseptically. The algal medium included CaCl2, NaHCO3, KCl, and MgSO4·7H2O, with pH adjusted to 7.0 and O2 ≥ 6.00 mg/L. Juvenile daphnids were cultured in 24-well plates, each holding 10 daphnids in 1000 μL of each compound dilution. The bioassay tested concentrations from 0.1 to 100 μM to determine LC50, using doxorubicin as the positive control and a 0.1% DMSO solution as the negative control. The daphnids were incubated at 22 ± 2 °C with a 16 h/8 h light/dark cycle.
The experiment was conducted in triplicate to ensure accuracy.
as §4

[1] = test system: HeLa, RD, and BxPC-3 cancer cell lines; test: Antiproliferative activity, summary over HeLa, RD and BxPC-3 cell lines; format: cell-based; settings: Homo sapiens; range over the three cancer cell lines; read-out: IC50 range against HeLa, RD, and BxPC-3 cell lines
Protocol: as §1, §2, §3, §4

LNCaP cancer cell line = test: Cell proliferation MTT assay, LNCaP; format: cell-based, human; settings: 24 h incubation
Protocol: (§5) The MTT assay, a colorimetric method, quantifies viable cells to evaluate cytotoxic effects on LNCaP, MCF-7, HepG-2, and K-562 cell lines. It measures the conversion of MTT to insoluble formazan by mitochondrial succinate dehydrogenase in active cells, reflecting cell viability. Compounds were dissolved in saline and DMSO (≤0.1%) and tested at 0.1, 1, and 10 μM concentrations, following Mosmann’s method.
(§6) Suspension cells were centrifuged, and adherent cells were trypsinized then diluted to 5 × 10⁴ cells/mL in RPMI 1640 with 10% fetal bovine serum. Subsequently, 5 × 10^3 cells in 100 μL were plated in 96-well plates and incubated for attachment. After adding compounds, cells were incubated for 24 h at 37 °C and 3% CO2. MTT reagent was introduced, and cells were monitored for formazan presence under a microscope.
(§7) Upon observing purple precipitate, detergent reagent was added, and plates were kept in the dark for 4 h. Absorbance was measured at 540 nm using a BioTek reader (Agilent, Santa Clara, CA, USA). Results, indicating percent inhibition, were calculated using the following formula:(3) I (%)=100−Abs540 nmsample /Abs540 nmcontrol ×100
(§8) IC50 values were determined as a measure of compound efficacy on cancer cell proliferation.

K-562 cancer cell line = test: Cell proliferation MTT assay, K-562; format: cell-based, human
Protocol: as §5, §6, §7, §8

HepG-2 cancer cell line = test: Cell proliferation MTT assay, HepG-2; format: cell-based, human
Protocol: as §5, §6, §7, §8

MCF-7 cancer cell line = test: Cell proliferation MTT assay, MCF-7; format: cell-based, human
Protocol: as §5, §6, §7, §8

MDCK normal cell line = test: Cell proliferation resazurin assay, MDCK normal cell line; format: cell-based, canine; settings: 24 h incubation
Protocol: as §1, §2, §3, §4

RD cancer cell line = test: Cell proliferation resazurin assay, RD; format: cell-based, human; settings: 24 h incubation
Protocol: as §1, §2, §3, §4

[2] = other: immersion in compound dilution
[3] = Homo sapiens, K562, K-562, 24 h incubation
[4] = Homo sapiens, HepG2, HepG-2, 24 h incubation
[5] = Homo sapiens, MCF7, MCF-7, 24 h incubation

Compound | IC50 (HL-60 cancer cell line; Homo sapiens) | IC50 (HeLa cancer cell line; Homo sapiens) | IC50 (BxPC-3 cancer cell line; Homo sapiens) | IC50 (LNCaP cancer cell line; Homo sapiens) | IC50 (K-562 cancer cell line; [3]) | IC50 (HepG-2 cancer cell line; [4]) | IC50 (MCF-7 cancer cell line; [5]) | IC50 (RD cancer cell line; Homo sapiens) | IC50 (HeLa cancer cell line) | IC50 (BxPC-3 cancer cell line) | IC50 (RD cancer cell line) | LC50 at 24 h (Daphnia magna; [2]) | IC50 (MDCK normal cell line; Canis lupus familiaris) | IC50 (MDCK normal cell line) | further results
COc1cccc(NC(=S)N/N=C(/c2ccccc2)c2ccccn2)c1 [HL^5, N-(3-Methoxyphenyl)-2-[phenyl (pyridin-2-yl)methylidene] hydrazine-1-carbothioamide] | 20 ± 6 nM | 100 ± 4.2 µM | 3200 ± 300 nM | 8.1 ± 1.2 µM | 100 ± 10 nM | 300 ± 10 nM | 5.2 ± 0.6 µM | 500 ± 60 nM |  |  |  | 45 µM | 100000 ± 3800 nM |  | IC50 [1]: 500 to 100000 nM
COc1cccc(NC(=S)N/N=C(\C)c2ccccn2)c1 [HL^4, N-(3-Methoxyphenyl)-2-[1-(pyridin-2-yl)ethylidene] hydrazine-1-carbothioamide] | 60 ± 4 nM | 5.8 ± 1.2 µM | 100 ± 30 nM | 100 ± 3.1 µM | 16000 ± 2200 nM | 3100 ± 300 nM | 55 ± 2.1 µM | 11600 ± 500 nM |  |  |  | 14 µM | 14900 ± 1600 nM |  | IC50 [1]: 100 to 11000 nM
COc1ccccc1NC(=S)N/N=C/c1ccccn1 [HL^1, N-(2-Methoxyphenyl)-2-[(pyridin-2-yl)methylidene] hydrazine-1-carbothioamide] | 40 ± 6 nM | 81.2 ± 5.3 µM | 100 ± 50 nM | 100 ± 4.9 µM | 10000 ± 1200 nM | 800 ± 40 nM | 10 ± 1.2 µM | 100000 ± 4200 nM |  |  |  | 15 µM | 10100 ± 1200 nM |  | 
COc1ccc(NC(=S)N/N=C/c2ccccn2)cc1 [HL^3, N-(4-Methoxyphenyl)-2-[(pyridin-2-yl)methylidene] hydrazine-1-carbothioamide] | 10 ± 1 nM | 100 ± 5.9 µM | 2100 ± 200 nM | 100 ± 4.2 µM | 10000 ± 1600 nM | 52000 ± 10 nM | 100 ± 4.6 µM | 500 ± 40 nM |  |  |  | 35 µM | 100000 ± 4600 nM |  | IC50 [1]: 500 to 100000 nM
COc1cccc(NC(=S)N/N=C/c2ccccn2)c1 [HL^2, N-(3-Methoxyphenyl)-2-[(pyridin-2-yl)methylidene] hydrazine-1-carbothioamide] | 10 ± 4 nM | 0.1 ± 0.01 µM | 100 ± 40 nM | 0.9 ± 0.05 µM | 900 ± 50 nM | 600 ± 60 nM | 3.5 ± 0.5 µM | 200 ± 30 nM |  |  |  | 13 µM | 400 ± 60 nM |  | IC50 [1]: 100 to 200 nM
COc1cccc2c1C(=O)c1c(O)c3c(c(O)c1C2=O)C[C@@](O)(C(=O)CO)C[C@@H]3O[C@H]1C[C@H](N)[C@H](O)[C@H](C)O1 [DOXO, doxorubicin, reference compound] | 1000 ± 300 nM | 6.2 ± 0.5 µM | 6000 ± 100 nM | 1.1 ± 0.02 µM | 400 ± 30 nM | 2800 ± 1100 nM | 14 ± 1.5 µM | 16200 ± 1400 nM |  |  |  |  | 10800 ± 1200 nM |  | LC50 at 24 h (Daphnia magna): 3.6 µM
[NH2][Pt]([NH2])([Cl])[Cl] [CDDP, cisplatin, reference compound] |  |  |  |  |  |  |  |  | 30.9 ± 1.2 µM | 11200 ± 1300 nM | 4600 ± 600 nM |  |  | 1500 ± 300 nM | 

Continued, in another order:

IC50 (HL-60 cancer cell line; Homo sapiens) | IC50 (HeLa cancer cell line; Homo sapiens) | IC50 (BxPC-3 cancer cell line; Homo sapiens) | IC50 (LNCaP cancer cell line; Homo sapiens) | IC50 (K-562 cancer cell line; [3]) | IC50 (HepG-2 cancer cell line; [4]) | IC50 (MCF-7 cancer cell line; [5]) | IC50 (RD cancer cell line; Homo sapiens) | IC50 (HeLa cancer cell line) | IC50 (BxPC-3 cancer cell line) | IC50 (RD cancer cell line) | Compound | LC50 at 24 h (Daphnia magna; [2]) | IC50 (MDCK normal cell line; Canis lupus familiaris) | IC50 (MDCK normal cell line) | further results
 |  |  |  |  |  |  |  | 0.1 ± 0.01 µM | 100 ± 50 nM | 100 ± 60 nM | COc1cccc(NC(=NN=Cc2ccccn2)[S][Cu][O][N+](=O)[O-])c1 [C4, [Cu(L^2)NO3]] |  |  | 1300 ± 400 nM | 
 |  |  |  |  |  |  |  | 1.1 ± 0.05 µM | 100 ± 40 nM | 1200 ± 30 nM | COc1ccc(NC(=NN=Cc2ccccn2)[S][Cu][O][N+](=O)[O-])cc1 [C6, [Cu(L^3)NO3]] |  |  | 2100 ± 1500 nM | IC50 (HL-60 cancer cell line): 30 ± 6 nM; IC50 (LNCaP cancer cell line): 0.3 ± 0.04 µM; IC50 (K-562 cancer cell line; K-562, 24 h incubation): 30 ± 2 nM; IC50 (HepG-2 cancer cell line; HepG-2, 24 h incubation): 600 ± 30 nM; IC50 (MCF-7 cancer cell line; MCF-7, 24 h incubation): 0.6 ± 0.03 µM
 |  |  |  |  |  |  |  | 0.8 ± 0.03 µM | 100 ± 10 nM | 100 ± 10 nM | COc1ccccc1NC(=NN=Cc1ccccn1)[S][Cu][O][N+](=O)[O-] [C2, [Cu(L^1)NO3]] |  |  | 600 ± 30 nM | IC50 (HL-60 cancer cell line): 30 ± 1 nM; IC50 (LNCaP cancer cell line): 0.8 ± 0.03 µM; IC50 (K-562 cancer cell line; K-562, 24 h incubation): 500 ± 10 nM; IC50 (HepG-2 cancer cell line; HepG-2, 24 h incubation): 400 ± 50 nM; IC50 (MCF-7 cancer cell line; MCF-7, 24 h incubation): 0.1 ± 0.05 µM
 |  |  |  |  |  |  |  | 0.1 ± 0.04 µM | 200 ± 50 nM | 500 ± 60 nM | COc1cccc(NC(=NN=C(C)c2ccccn2)[S][Cu][O][N+](=O)[O-])c1 [C7, [Cu(L^4)NO3]] |  |  | 900 ± 40 nM | 
 |  |  |  |  |  |  |  | 26.1 ± 1.2 µM | 9400 ± 1200 nM | 19700 ± 2400 nM | COc1ccc(NC(=NN=Cc2ccccn2)[S][Cu][Cl])cc1 [C5, [Cu(L^3)Cl]] |  |  | 26600 ± 2400 nM | 
 |  |  |  |  |  |  |  | 0.8 ± 0.04 µM | 100 ± 20 nM | 100 ± 10 nM | COc1ccccc1NC(=NN=Cc1ccccn1)[S][Cu][Cl] [C1, [Cu(L^1)Cl]] |  |  | 300 ± 20 nM | IC50 (HL-60 cancer cell line): 35000 ± 2100 nM; IC50 (LNCaP cancer cell line): 45 ± 2.1 µM; IC50 (K-562 cancer cell line; K-562, 24 h incubation): 64000 ± 1400 nM; IC50 (HepG-2 cancer cell line; HepG-2, 24 h incubation): 68000 ± 4200 nM; IC50 (MCF-7 cancer cell line; MCF-7, 24 h incubation): 100 ± 4.2 µM
 |  |  |  |  |  |  |  | 0.1 ± 0.03 µM | 100 ± 70 nM | 200 ± 40 nM | COc1cccc(NC(=NN=C(C)c2ccccn2)[S][Cu][Cl])c1 [C8, [Cu(L^4)Cl]] |  |  | 1100 ± 60 nM | 

— paper PMC11676775, “Novel Copper(II) Coordination Compounds Containing Pyridine Derivatives of N^4-Methoxyphenyl-Thiosemicarbazones with Selective Anticancer Activity” (Molecules, 2024)
